Reference: US20080227780A1, “SOLUBLE EPOXIDE HYDROLASE INHIBITORS” (Arete Therapeutics, Inc., priority 2007, published 2008)

The compounds below were run on soluble epoxide hydrolase (sEH) (assay: Fluorescent assay for soluble epoxide hydrolase (CMNPC substrate), percent inhibition at the recited concentration). Details: Inhibition Conc. 50 nM.
Type: biochemical
Method in brief: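 Purified recombinant baculovirus-expressed sEH in 25 mM Bis/Tris HCl pH 7.0 with 0.1 mg/mL BSA; inhibitor serially diluted and preincubated with enzyme 5 min at 30 °C. Reaction started with 5 μM (final) substrate; fluorescence (ex 330/em 465 nm) read every 30 s for 10 min, and velocities give % inhibition.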

| % inh. [%] | Structure (SMILES) |
| --- | --- |
| 99 | O=C(NC1CCN(S(=O)(=O)c2ccc(C(F)(F)F)cc2)CC1)NC12CC3CC(CC(C3)C1)C2 [Compound 7-36, 1-adamantyl-3-(1-(4-(trifluoromethyl)phenylsulfonyl)piperidin-4-yl)urea] |
| 100 | O=C(NC1CCN(S(=O)(=O)c2ccc(Cl)c(Cl)c2)CC1)NC12CC3CC(CC(C3)C1)C2 [Compound 7-37] |
| 100 | O=C(NC1CCN(S(=O)(=O)c2cccc(C(F)(F)F)c2)CC1)NC12CC3CC(CC(C3)C1)C2 [Compound 7-38, 1-adamantyl-3-(1-(3-(trifluoromethyl)phenylsulfonyl)piperidin-4-yl)urea] |
| 89 | Cn1cnc(C(=O)N2CCC(NC(=O)NC34CC5CC(CC(C5)C3)C4)CC2)c1 [Compound 7-39, 1-adamantyl-3-(1-(1-methyl-1H-imidazole-4-carbonyl)piperidin-4-yl)urea] |
| 82 | O=C(NC1CCCCC1)NC1CCN(C(=O)c2ccccn2)CC1 [Compound 7-40, 1-cyclohexyl-3-(1-picolinoylpiperidin-4-yl)urea] |
| 92 | CS(=O)(=O)c1ccc(S(=O)(=O)N2CCC(NC(=O)NC34CC5CC(CC(C5)C3)C4)CC2)cc1 [Compound 7-41, 1-adamantyl-3-(1-(4-(methylsulfonyl)phenylsulfonyl)piperidin-4-yl)urea] |
| 95 | O=C(NC1CCCCC1)NC1CCN(S(=O)(=O)c2ccc(Cl)cc2)CC1 [Compound 7-42, 1-(1-(4-chlorophenylsulfonyl)piperidin-4-yl)-3-cyclohexylurea] |
| 81 | O=C(NC1CCCCC1)NC1CCN(S(=O)(=O)c2cccc(C(F)(F)F)c2)CC1 [Compound 7-44, 1-cyclohexyl-3-(1-(3-(trifluoromethyl)phenylsulfonyl)piperidin-4-yl)urea] |
| 92 | O=C(NC1CCN(S(=O)(=O)c2ccc(C(=O)O)cc2)CC1)NC12CC3CC(CC(C3)C1)C2 [Compound 7-45, 4-(4-(3-adamantylureido)piperidin-1-ylsulfonyl)benzoic acid] |
| 96 | O=C(NC1CCN(C(=O)c2ccc(Cl)cc2)CC1)NC12CC3CC(CC(C3)C1)C2 [Compound 7-46, 1-(1-(4-chlorobenzoyl)piperidin-4-yl)-3-adamantylurea] |
| 100 | CC(C)(C)OC(=O)N1CCC(NC(=O)Nc2ccc(C(F)(F)F)cc2)CC1 [Compound 7-47, tert-butyl 4-(3-(4-(trifluoromethyl)phenyl)ureido)piperidine-1-carboxylate] |

Same assay, conditions: Inhibition Conc. 200 nM

| Structure (SMILES) | % inh. [%] |
| --- | --- |
| CC(C)(C)OC(=O)N1CCC(NC(=O)NC2CCCCCC2)CC1 [Compound 7-48, tert-butyl 4-(3-cycloheptylureido)piperidine-1-carboxylate] | 100 |
| CC(C)(C)OC(=O)N1CCC(NC(=O)Nc2ccc(S(C)(=O)=O)cc2)CC1 [Compound 7-49, tert-butyl 4-(3-(4-(methylsulfonyl)phenyl)ureido)piperidine-1-carboxylate] | 83 |
| CC(C)(C)OC(=O)N1CCC(NC(=O)NC2CCC2)CC1 [Compound 7-50, tert-butyl 4-(3-cyclobutylureido)piperidine-1-carboxylate] | 76 |

Results, then the compound that gave them:

| % inh. [%] | Structure (SMILES) |
| --- | --- |
| 94 | CC(C)S(=O)(=O)N1CCC(NC(=O)Nc2ccc(OC(F)(F)F)cc2)CC1 [Compound 7-55, 1-(1-(isopropylsulfonyl)piperidin-4-yl)-3-(4-(trifluoromethoxy)phenyl)urea] |
| 86 | O=C(NC1CCN(C(=O)NC23CC4CC(CC(C4)C2)C3)CC1)NC12CC3CC(CC(C3)C1)C2 [Compound 7-56, N-adamantyl-4-(3-adamantylureido)piperidine-1-carboxamide] |
| 90 | CC(=O)N1CCC(NC(=O)N2CCC(NC(=O)NC34CC5CC(CC(C5)C3)C4)CC2)CC1 [Compound 7-57, N-(1-acetylpiperidin-4-yl)-4-(3-adamantylureido)piperidine-1-carboxamide] |
| 84 | CC(=O)N1CCC(NC(=O)NC23CCC(C)(CC2)CC3)CC1 [Compound 7-58, 1-(1-acetylpiperidin-4-yl)-3-(4-methylbicyclo[2.2.2]octan-1-yl)urea] |
| 86 | O=C(NC1CCN(C(=O)CCO)CC1)NC12CC3CC(CC(C3)C1)C2 [Compound 7-59, 1-adamantyl-3-(1-(3-hydroxypropanoyl)piperidin-4-yl)urea] |
| 97 | CC(C)(C)OC(=O)N1CCC(NC(=O)NC2CCCCCCC2)CC1 [Compound 7-64, tert-butyl 4-(3-cyclooctylureido)piperidine-1-carboxylate] |
| 84 | O=C(Nc1ccc(OC(F)(F)F)cc1)NC1CCN(C(=O)CCCO)CC1 [Compound 7-71, 1-(1-(4-hydroxybutanoyl)piperidin-4-yl)-3-(4-(trifluoromethoxy)phenyl)urea] |

Same assay, conditions: Inhibition Conc. 500 nM

| % inh. [%] | Structure (SMILES) |
| --- | --- |
| 86 | CC(=O)N1CCC(NC(=O)NC2CCCCC2)CC1 [Compound 7-43, 1-(1-acetylpiperidin-4-yl)-3-cyclohexylurea] |
| 83 | O=C(NC1CCCCC1)NC1CCN(C(=O)CCCN2CCOCC2)CC1 [Compound 7-61, 1-cyclohexyl-3-(1-(4-morpholinobutanoyl)piperidin-4-yl)urea] |

Same assay, conditions: Inhibition Conc. 2000 nM

| Structure (SMILES) | % inh. [%] |
| --- | --- |
| CC(=O)N1CCC(NC(=O)Nc2ccc(N(C)C)cc2)CC1 [Compound 7-52, 1-(1-acetylpiperidin-4-yl)-3-(4-(dimethylamino)phenyl)urea] | 44 |
| CC(C)(C)OC(=O)N1CCC(NC(=O)Nc2ccc(C(=O)O)cc2)CC1 [Compound 7-54, 4-(3-(1-(tert-butoxycarbonyl)piperidin-4-yl)ureido)benzoic acid] | 55 |

Now from value to compound:

| % inh. [%] | Structure (SMILES) |
| --- | --- |
| 17 | CC(=O)N1CCC(NC(=O)Nc2ccc(C(=O)O)cc2)CC1 [Compound 7-53, 4-(3-(1-acetylpiperidin-4-yl)ureido)benzoic acid] |
| 33 | CC(=O)N1CCC(NC(=O)Nc2ccc(S(C)(=O)=O)cc2)CC1 [Compound 7-60, 1-(1-acetylpiperidin-4-yl)-3-(4-(methylsulfonyl)phenyl)urea] |
| 82 | CC(=O)N1CCC(NC(=O)NC2CCC(F)(F)CC2)CC1 [Compound 7-62, 1-(1-acetylpiperidin-4-yl)-3-(4,4-difluorocyclohexyl)urea] |
| 76 | CC(=O)N1CCC(NC(=O)NC2CCC2)CC1 [Compound 7-63, 1-(1-acetylpiperidin-4-yl)-3-cyclobutylurea] |
| 95 | CN(C)c1ccc(NC(=O)NC2CCN(C(=O)OC(C)(C)C)CC2)cc1 [Compound 7-65, tert-butyl 4-(3-(4-(dimethylamino)phenyl)ureido)piperidine-1-carboxylate] |
| 96 | COC(=O)c1ccc(NC(=O)NC2CCN(C(=O)OC(C)(C)C)CC2)cc1 [Compound 7-67, tert-butyl 4-(3-(4-(methoxycarbonyl)phenyl)ureido)piperidine-1-carboxylate] |
| 93 | CC(C)(C)OC(=O)N1CCC(NC(=O)Nc2ccc(CN3CCCC3)cc2)CC1 [Compound 7-68, tert-butyl 4-(3-(4-(pyrrolidin-1-ylmethyl)phenyl)ureido)piperidine-1-carboxylate] |
| 69 | COC(=O)c1ccc(NC(=O)NC2CCN(C(C)=O)CC2)cc1 [Compound 7-69, methyl 4-(3-(1-acetylpiperidin-4-yl)ureido)benzoate] |
| 90 | CC(C)(C)C(=O)N1CCC(NC(=O)Nc2ccc(S(C)(=O)=O)cc2)CC1 [Compound 7-70, 1-(4-(methylsulfonyl)phenyl)-3-(1-pivaloylpiperidin-4-yl)urea] |
